Data: patent US10837044B2, “Automated method for analyzing and interpreting an antimicrobial susceptibility” (FONDATION MEDITERRANEE INFECTION, priority 2014, dated 2020)

What was measured:
Escherichia coli [1] = experiment: antibiogram by diffusion on Mueller-Hinton agar with antibiotic wafers; assay type: cell-based; details: Table C2, square dish
Method: (§1) The inoculum was prepared by making a suspension of bacteria directly from colonies put into solution in tubes of sterile water so that the solution presented accurate opacity as determined with a spectrophotometer equivalent to the opacity of a 0.5 standard in the McFarland range. This bacterial suspension concentration is standardized since a more concentrated inoculum would lead to smaller diameters for the inhibition zone, and vice versa.
(§2) The inoculum corresponds to concentrations of about 10^8 CFU/mL for Escherichia coli, Klebsiella pneumoniae, Proteus mirabilis, Klebsiella oxytoca, Enterobacter cloacea, Enterobacter aerogenes, Entercoccus faecalis, Pseudomonas aeruginosa, Staphylococcus aureus, and Staphylococcus epidermidis. These are the ten species bacteria that are encountered the most frequently in human pathologies.
(§3) 1.2) The bacterial sample was deposited on a solid culture medium in a petri dish having a diameter of 90 mm or in a square dish having a side of 120 mm, the medium being constituted by a Mueller-Hinton agar specific for (EUCAST) antibiograms. Ideally, it should be used in the 15 minutes (min) following preparation of the suspension.
(§4) Seeding was done by the method of diffusion on an agar medium by flooding in which excess bacterial suspension was added to the Mueller-Hinton agar. After homogenizing, excess liquid was discarded in order to avoid over-inoculating the dishes. It is necessary to wait beforehand for the surface of the agar to be dry in order to eliminate any trace of moisture encouraging bacterial invasion.
(§5) The disks of the antibiotic wafers were deposited within 15 min after inoculating the agar. The antibiotic impregnated disks were deposited using an automatic dispenser that placed the disks firmly on the surface of the inoculated and dried agar. The number of disks deposited per dish was limited because of inhibition zone overlap and in order to limit interference between antibiotics. It is important for the inhibition diameters to be measurable. The antibiograms were then incubated at 37° C. for 18 hours (h) to 24 h.
(§6) The antibiotic wafers were made of high quality absorbent paper with a diameter of 6 mm and they were impregnated with antibiotics at concentrations in the range 1 micrograms (μg) to 300 μg approximately, depending on the antibiotic.
(§7) In the examples below, reference disks were used as sold by the suppliers i2a (Montpellier, France), BD (Becton Dickinson, USA), Bio-Rad (Hercules, USA), Biomerieux (Marcy l′Etoile, France) containing the following antibiotics and carrying the following codes and the following doses: AMX (amoxicillin) 25 μg: AMC (amoxicillin-clavulanic acid) 20 μg-10 μg; GM for gentamicin, 15 μg; SXT (trimethoprim-sulfamethoxazole) 1.25/23.75 μg; TIC (ticarcillin) 75 μg; TCC (ticarcillin-clavulanic acid) […]; TZP (piperacillin-tazobactam) 75/10 μg; CAZ (ceftazidime) 30 μg; IMP or IPM (imipeneme) 10 μg; COL (colistin) 50 μg; FOX (cefoxitine) 30 μg; VAN (vancomycin) 30 μg; TEC (teicoplanin) 30 μg; CLI or DA (clindamycin) 2 μg; CRO (ceftriaxone) 30 μg; CIP (ciprofloxacin) 5 μg; OFX (ofloxacin) 5 μg; CTX (cefotaxime) 5 μg; AN or AK (amikacin) 30 μg; TM (tobramycin) 10 μg; FOX (cefoxitine) 30 μg; ATM (aztreonam) 30 μg; ERT (ertapenem) 10 μg; FF (fosfomycin) 200 μg; DO (doxycycline) 30 μg; K (kanamycin) 1000 μg; L (lincomycin) 15 μs; LNZ (linezolid) 10 μg; AN (nalidixic acid) 30 μg; NOR (norfloxacin) 10 μg; PT (pristinamycin) 15 μg; RA (rifampicin) 5 μg; and E (erythromycin) 15 μg.

Klebsiella pneumoniae = experiment: as above; assay type: cell-based; details: Table C2, sixteen wafers, square dish
Method: as §1, §2, §3, §4, §5, §6, §7

Pseudomonas aeruginosa = experiment: as above; assay type: cell-based; details: Table C1, six wafers, disk loads of Table B
Method: as §1, §2, §3, §4, §5, §6, §7

Staphylococcus aureus = experiment: as above; assay type: cell-based; details: Table C2, sixteen wafers, square dish
Method: as §1, §2, §3, §4, §5, §6, §7

Escherichia coli [2] = details: cited from earlier work; for Critical diameters (mm) R> / Critical diameters (mm) S≤: disk load 10 μg, inhibition zone diameter; for Critical diameters (mm) R> / Critical concentrations (mg/L) R>: resistant; for Critical diameters (mm) S≤ / Critical concentrations (mg/L) S≤: sensitive; for Critical concentrations (mg/L) R>: high critical concentration; for Critical concentrations (mg/L) S≤: low critical concentration
Entercoccus faecalis = experiment: antibiogram by diffusion on Mueller-Hinton agar with antibiotic wafers; assay type: cell-based; details: Table C1, six wafers, disk loads of Table B
Method: as §1, §2, §3, §4, §5, §6, §7

[3] = E. coli phenotype Cephalosporinase + R to fluoroquinolones + R to cotrimoxazole + partial R to aminosides, sixteen wafers
[4] = E. coli phenotype Hl penicillinase + R to fluoroquinolones + R to cotrimoxazole + partial R to aminosides, sixteen wafers
[5] = E. coli phenotype Wild, sixteen wafers in a rectangular grid
[6] = K. pneumoniae phenotype Cephalosporinase + R to aminosides + R to cotrimoxazole
[7] = P. aeruginosa Abnormal phenotype
[8] = P. aeruginosa phenotype Carbapenemase
[9] = P. aeruginosa phenotype Penicillinase
[10] = P. aeruginosa phenotype Selective imipenem permeability
[11] = S. aureus phenotype R to methicilline, R to aminosides, fluoroquinolones, to rifampicie, to macrolides and the like

Compound | resistant (I/R) or sensitive (S) (Escherichia coli [1]; [3]) | resistant (I/R) or sensitive (S) (Escherichia coli [1]; [4]) | resistant (I/R) or sensitive (S) (Escherichia coli [1]; [5]) | resistant (I/R) or sensitive (S) (Klebsiella pneumoniae; [6]) | resistant (I/R) or sensitive (S) (Klebsiella pneumoniae; K. pneumoniae phenotype Wild) | resistant (I/R) or sensitive (S) (Staphylococcus aureus; [11]) | resistant (I/R) or sensitive (S) (Staphylococcus aureus; S. aureus phenotype Wild) | other results
NCC[C@H](O)C(=O)N[C@@H]1C[C@H](N)[C@@H](O[C@H]2O[C@H](CN)[C@@H](O)[C@H](O)[C@H]2O)[C@H](O)[C@H]1O[C@H]1O[C@H](CO)[C@@H](O)[C@H](N)[C@H]1O [AK, amikacin] | S | S | S | S | R | – | – | –
C[C@H]1[C@H](NC(=O)/C(=N\OC(C)(C)C(=O)O)c2csc(N)n2)C(=O)N1S(=O)(=O)O [ATM, aztreonam] | R | S | S | R | R | – | – | –
CC(C)(O/N=C(\C(=O)N[C@@H]1C(=O)N2C(C(=O)[O-])=C(C[n+]3ccccc3)CS[C@H]12)c1csc(N)n1)C(=O)O [CAZ, ceftazidime] | – | – | – | – | – | – | – | resistance (I, R) or sensitivity (S) (Pseudomonas aeruginosa; [7]): S; resistance (I, R) or sensitivity (S) (Pseudomonas aeruginosa; P. aeruginosa phenotype BSBL): R; resistance (I, R) or sensitivity (S) (Pseudomonas aeruginosa; [8]): R; resistance (I, R) or sensitivity (S) (Pseudomonas aeruginosa; [9]): S; resistance (I, R) or sensitivity (S) (Pseudomonas aeruginosa; [10]): S; resistance (I, R) or sensitivity (S) (Pseudomonas aeruginosa; P. aeruginosa phenotype Wild): S
O=C(O)c1cn(C2CC2)c2cc(N3CCNCC3)c(F)cc2c1=O [CIP, ciprofloxacin] | R | R | S | R | S | R | S | –
CO/N=C(\C(=O)N[C@@H]1C(=O)N2C(C(=O)O)=C(COC(C)=O)CS[C@H]12)c1csc(N)n1 [CTX, cefotaxime] | R | S | S | R | R | – | – | –
C[C@H]1c2cccc(O)c2C(=O)C2=C(O)[C@]3(O)C(=O)C(C(N)=O)=C(O)[C@@H](N(C)C)[C@@H]3[C@@H](O)[C@@H]21 [DO, doxycycline] | – | – | – | – | – | R | S | –
C[C@@H](O)[C@H]1C(=O)N2C(C(=O)O)=C(S[C@@H]3CN[C@H](CNS(N)(=O)=O)C3)[C@H](C)[C@H]12 [Doripenem] | – | – | – | – | – | – | – | Critical diameters (mm) R> (Escherichia coli [2]): 21 mm; Critical diameters (mm) S≤ (Escherichia coli [2]): 24 mm; Critical concentrations (mg/L) R> (Escherichia coli [2]): 2 mg/L; Critical concentrations (mg/L) S≤ (Escherichia coli [2]): 1 mg/L
CC[C@H]1OC(=O)[C@H](C)[C@@H](O[C@H]2C[C@@](C)(OC)[C@@H](O)[C@H](C)O2)[C@H](C)[C@@H](O[C@@H]2O[C@H](C)C[C@H](N(C)C)[C@H]2O)[C@](C)(O)C[C@@H](C)C(=O)[C@H](C)[C@@H](O)[C@]1(C)O [E, erythromycin] | – | – | – | – | – | R | S | –
C[C@@H](O)[C@H]1C(=O)N2C(C(=O)O)=C(S[C@@H]3CN[C@H](C(=O)Nc4cccc(C(=O)O)c4)C3)[C@H](C)[C@H]12 [Ertapenem] | – | – | – | – | – | – | – | Critical diameters (mm) R> (Escherichia coli [2]): 22 mm; Critical diameters (mm) S≤ (Escherichia coli [2]): 25 mm; Critical concentrations (mg/L) R> (Escherichia coli [2]): 1 mg/L; Critical concentrations (mg/L) S≤ (Escherichia coli [2]): 0.5 mg/L
C[C@@H]1O[C@@H]1P(=O)(O)O [FF, fosfomycin] | – | – | – | – | – | R | S | –
O=C1CN(/N=C/c2ccc([N+](=O)[O-])o2)C(=O)N1 [FUR, nitrofurantoin] | – | – | – | – | – | R | S | resistance (I, R) or sensitivity (S) (Entercoccus faecalis; E. faecalis phenotype Atypical): S; resistance (I, R) or sensitivity (S) (Entercoccus faecalis; E. faecalis phenotype Wild): S
CCC[C@@H]1C[C@@H](C(=O)N[C@@H]([C@H]2O[C@H](SC)[C@H](O)[C@@H](O)[C@H]2O)[C@@H](C)O)N(C)C1 [LIN, lincomycin] | – | – | – | – | – | – | – | resistance (I, R) or sensitivity (S) (Entercoccus faecalis; E. faecalis phenotype Atypical): S; resistance (I, R) or sensitivity (S) (Entercoccus faecalis; E. faecalis phenotype Wild): S
CC(=O)NC[C@H]1CN(c2ccc(N3CCOCC3)c(F)c2)C(=O)O1 [LNZ, linezolid] | – | – | – | – | – | S | S | –
C[C@@H](O)[C@H]1C(=O)N2C(C(=O)O)=C(S[C@@H]3CN[C@H](C(=O)N(C)C)C3)[C@H](C)[C@H]12 [Meopenem] | – | – | – | – | – | – | – | Critical diameters (mm) R> (Escherichia coli [2]): 16 mm; Critical diameters (mm) S≤ (Escherichia coli [2]): 22 mm; Critical concentrations (mg/L) R> (Escherichia coli [2]): 8 mg/L; Critical concentrations (mg/L) S≤ (Escherichia coli [2]): 2 mg/L
CC1COc2c(N3CCN(C)CC3)c(F)cc3c(=O)c(C(=O)O)cn1c23 (centres unmarked) [OFX, ofloxacin] | R | R | S | R | S | – | – | –
Cc1onc(-c2ccccc2)c1C(=O)N[C@@H]1C(=O)N2[C@@H]1SC(C)(C)[C@@H]2C(=O)O [OXA, oxacillin] | – | – | – | – | – | R | S | –
CO[C@H]1/C=C/O[C@@]2(C)Oc3c(C)c(O)c4c(O)c(c(/C=N/N5CCN(C)CC5)c(O)c4c3C2=O)NC(=O)/C(C)=C\C=C\[C@H](C)[C@H](O)[C@@H](C)[C@@H](O)[C@@H](C)[C@H](OC(C)=O)[C@@H]1C [RA, rifampicin] | – | – | – | – | – | R | S | –
CC1(C)S[C@@H]2[C@H](NC(=O)[C@H](C(=O)O)c3ccsc3)C(=O)N2[C@H]1C(=O)O [TIC, ticarcillin] | R | R | S | R | R | – | – | resistance (I, R) or sensitivity (S) (Pseudomonas aeruginosa; [7]): R; resistance (I, R) or sensitivity (S) (Pseudomonas aeruginosa; P. aeruginosa phenotype BSBL): I/R; resistance (I, R) or sensitivity (S) (Pseudomonas aeruginosa; [8]): R; resistance (I, R) or sensitivity (S) (Pseudomonas aeruginosa; [9]): R; resistance (I, R) or sensitivity (S) (Pseudomonas aeruginosa; [10]): S; resistance (I, R) or sensitivity (S) (Pseudomonas aeruginosa; P. aeruginosa phenotype Wild): S
NC[C@H]1O[C@H](O[C@H]2[C@H](O)[C@@H](O[C@H]3O[C@H](CO)[C@@H](O)[C@H](N)[C@H]3O)[C@H](N)C[C@@H]2N)[C@H](N)C[C@@H]1O [TOB, tobramycin] | R | R | S | R | R | R | S | –
pristinamycin [PT] | – | – | – | – | – | R | S | –
